Results taken from ChEMBL document CHEMBL3046242, “Synthesis and evaluation of thiopyrano[3,4-c]quinoline-9-carboxamide derivatives as inhibitors of poly(ADP-ribose) polymerase-1 (PARP-1)” (Med Chem Res, 2012).

Key:
[1] = biological target: T1, Poly [ADP-ribose] polymerase 1 (Homo sapiens, UniProt P09874); experiment: Inhibition of PARP-1 (unknown origin) expressed in CHO-K1 cells assessed as depletion of NAD(P)H after 2 hr by CCK-8 assay; type: cell-based
[2] = Half life in Homo sapiens (human) liver microsomes at 1 uM by LC/MS/MS analysis; type: ADME
[3] = biological target: T1, Poly [ADP-ribose] polymerase 1; experiment: Inhibition of PARP-1 (unknown origin) assessed as inhibition of biotinylated poly(ADP-ribose) onto histone proteins after 30 min by colorimetry
[4] = Half life in Rattus norvegicus Sprague-Dawley (rat) at 5 mg/kg, iv; type: ADME, organism-based; set-up: dose 5 mg/kg, route intravenous; conditions: in vivo
[5] = AUC (0 to infinity) in Rattus norvegicus Sprague-Dawley (rat) at 5 mg/kg, iv; type: ADME, organism-based; set-up: time infinity, dose 5 mg/kg, route intravenous; conditions: plasma
[6] = Solubility of the compound in water; type: physicochemical
[7] = Clearance in Rattus norvegicus Sprague-Dawley (rat) at 5 mg/kg, iv; type: ADME, organism-based; set-up: dose 5 mg/kg, route intravenous; conditions: in vivo

T1 sequence (P09874 whole entry): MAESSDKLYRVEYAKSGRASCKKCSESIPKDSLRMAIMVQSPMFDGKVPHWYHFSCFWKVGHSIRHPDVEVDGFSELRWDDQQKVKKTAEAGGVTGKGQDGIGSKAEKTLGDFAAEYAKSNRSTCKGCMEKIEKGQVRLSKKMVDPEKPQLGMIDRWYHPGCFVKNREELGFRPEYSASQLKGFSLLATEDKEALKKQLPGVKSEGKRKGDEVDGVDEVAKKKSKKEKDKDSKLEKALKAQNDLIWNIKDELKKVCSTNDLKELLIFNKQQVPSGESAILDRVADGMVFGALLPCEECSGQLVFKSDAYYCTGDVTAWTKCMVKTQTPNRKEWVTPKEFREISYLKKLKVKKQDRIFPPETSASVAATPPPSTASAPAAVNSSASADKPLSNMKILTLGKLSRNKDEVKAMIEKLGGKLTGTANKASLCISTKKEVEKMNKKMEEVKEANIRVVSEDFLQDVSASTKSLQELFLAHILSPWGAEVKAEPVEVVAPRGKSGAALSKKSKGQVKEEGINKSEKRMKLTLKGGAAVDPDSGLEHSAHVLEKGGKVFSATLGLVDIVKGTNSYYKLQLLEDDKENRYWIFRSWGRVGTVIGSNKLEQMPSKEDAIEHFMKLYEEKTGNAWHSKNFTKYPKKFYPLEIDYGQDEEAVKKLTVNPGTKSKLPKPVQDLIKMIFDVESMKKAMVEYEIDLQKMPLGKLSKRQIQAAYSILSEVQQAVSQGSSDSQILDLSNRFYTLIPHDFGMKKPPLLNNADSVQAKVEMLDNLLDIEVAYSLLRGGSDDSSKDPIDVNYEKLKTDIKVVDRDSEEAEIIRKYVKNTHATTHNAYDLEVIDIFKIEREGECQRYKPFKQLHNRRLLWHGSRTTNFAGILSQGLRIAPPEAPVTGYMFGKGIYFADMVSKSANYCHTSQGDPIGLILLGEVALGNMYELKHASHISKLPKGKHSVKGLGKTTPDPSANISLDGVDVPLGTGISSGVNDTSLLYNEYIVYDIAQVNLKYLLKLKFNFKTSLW

Structure (SMILES)	ED50 [1]	IC50 [3]	other results
O=C(c1ccc2[nH]c(=O)c3c(c2c1)CCSC3)N1CCN(C2CCCC2)CC1	550 nM	47 nM	half-life at 1 µM [2]: 14.5 min
CCCCCN1CCN(C(=O)c2ccc3[nH]c(=O)c4c(c3c2)CCSC4)CC1	610 nM	79 nM	–
O=C(c1ccc2[nH]c(=O)c3c(c2c1)CCSC3)N1CCN(CCCC(F)(F)F)CC1	2410 nM	134 nM	–
O=C(NCCN1CCN(c2ccccc2)CC1)c1ccc2[nH]c(=O)c3c(c2c1)CCSC3	4020 nM	166 nM	–
CCCC(C)N1CCN(C(=O)c2ccc3[nH]c(=O)c4c(c3c2)CCSC4)CC1 (configuration not stated)	460 nM	40 nM	–
CN1CCN(C(=O)c2ccc3[nH]c(=O)c4c(c3c2)CCSC4)CC1	2530 nM	188 nM	–
O=C(c1ccc2[nH]c(=O)c3c(c2c1)CCSC3)N1CCCCC1	1260 nM	175 nM	–
CCCCCCN1CCN(C(=O)c2ccc3[nH]c(=O)c4c(c3c2)CCSC4)CC1	2910 nM	94 nM	–
O=C(c1ccc2[nH]c(=O)c3c(c2c1)CCSC3)N1CCN(C2CCCCCC2)CC1	500 nM	67 nM	–
O=C(c1ccc2[nH]c(=O)c3c(c2c1)CCSC3)N1CCN(C2CCCCC2)CC1	320 nM	68 nM	–
O=C(c1ccc2[nH]c(=O)c3c(c2c1)CCSC3)N1CCN(c2ccncc2)CC1	> 30000 nM	20 nM	–
CCCCN1CCN(C(=O)c2ccc3[nH]c(=O)c4c(c3c2)CCSC4)CC1	770 nM	42 nM	–
NCCCNC(=O)c1ccc2[nH]c(=O)c3c(c2c1)CCSC3	> 30000 nM	30 nM	–
O=C(c1ccc2[nH]c(=O)c3c(c2c1)CCSC3)N1CCN(Cc2ccccc2)CC1	2510 nM	187 nM	–
O=C(c1ccc2[nH]c(=O)c3c(c2c1)CCSC3)N1CCNCC1	> 30000 nM	8 nM	–
CC(C)CCN1CCN(C(=O)c2ccc3[nH]c(=O)c4c(c3c2)CCSC4)CC1	840 nM	65 nM	half-life at 1 µM [2]: 15.9 min
O=C(NCCN1CCCCC1)c1ccc2[nH]c(=O)c3c(c2c1)CCSC3	2810 nM	58 nM	–
O=C(c1ccc2[nH]c(=O)c3c(c2c1)CCSC3)N1CCN(CCc2ccccc2)CC1	2190 nM	19 nM	–
O=C(NCCN1CCNCC1)c1ccc2[nH]c(=O)c3c(c2c1)CCSC3	> 30000 nM	36 nM	–
NCCNC(=O)c1ccc2[nH]c(=O)c3c(c2c1)CCSC3	> 30000 nM	17 nM	–
O=C1CC2(CCCC2)CC(=O)N1CCCCN1CCN(c2ncccn2)CC1 [BUSPIRONE]	–	–	half-life at 1 µM [2]: 4 min
O=C(NCCN1CCOCC1)c1ccc2[nH]c(=O)c3c(c2c1)CCSC3	> 30000 nM	60 nM	–
O=C(O)c1ccc2[nH]c(=O)c3c(c2c1)CCSC3	–	78 nM	–
CCOC(=O)c1ccc2[nH]c(=O)c3c(c2c1)CCSC3	–	536 nM	–
O=C(c1ccc2[nH]c(=O)c3c(c2c1)CCSC3)N1CCN(c2ccccc2)CC1	1290 nM	234 nM	–
CCN1CCN(C(=O)c2ccc3[nH]c(=O)c4c(c3c2)CCSC4)CC1	2000 nM	47 nM	–
NCCCCNC(=O)c1ccc2[nH]c(=O)c3c(c2c1)CCSC3	> 30000 nM	27 nM	–
CCCN1CCN(C(=O)c2ccc3[nH]c(=O)c4c(c3c2)CCSC4)CC1	540 nM	45 nM	half-life [4]: 84 min; half-life at 1 µM [2]: 41.7 min; AUC(0-inf) [5]: 1300 ng·h/mL; solubility [6]: > 1000 µg/mL; clearance [7]: 63.3 mL/min/kg
O=C(NCCN1CCN(c2ccncc2)CC1)c1ccc2[nH]c(=O)c3c(c2c1)CCSC3	> 30000 nM	44 nM	–
